# Source: patent US9308198B2, “Treatment, prevention, and reversal of alcohol-induced brain disease” (priority 2006, dated 2016)
# Tests used:
# [1] = test system: IGF-I receptor tyrosine kinase; conditions: cerebellar tissue, ethanol-exposed relative to control pups; normalized to receptor protein; not dose-dependent
# Description: (§1) Insulin or IGF-I receptor molecules were immunoprecipitated from individual 100 μg protein samples using rabbit polyclonal antibodies (1 μg/ml) and Protein A sepharose (Amersham-Pharmacia, Arlington Heights, Ill.) (Ausubel et al, (2002) Current Protocols in Molecular Biology. John Wiley & Sons New York). Receptor tyrosine kinase activity was measured in the immune precipitates using a non-isotopic assay (Chemicon International, Temecula, Calif.) according to the manufacturer's protocol with small modifications. Briefly, tyrosine phosphorylation of the biotinylated synthetic peptide substrate captured onto streptavidin-coated wells was detected with horseradish peroxidase conjugated anti-phospho-tyrosine and SuperSignal West Pico chemiluminescent substrate (Pierce Chemical Co., Rockford, Ill.). Luminescence was measured in a TopCount machine (Packard Instrument Co., Meriden, Conn.). […]
# (§2) Studies were done to characterize the degree to which ethanol-associated impairments in receptor binding were associated with reductions in insulin and IGF-I receptor tyrosine kinase activities, and insulin and IGF-I receptor protein expression. Receptor protein levels were measured by Western blotting with digital image densitometry.
# [2] = test system: insulin receptor tyrosine kinase; conditions: cerebellar tissue, ethanol-exposed relative to control pups; normalized to receptor protein; not dose-dependent
# Description: as §1, §2
# cerebellar ATP content = conditions: rat, in vivo
# Description: as §2
# [3] = test system: choline acetyltransferase (ChAT) mRNA; conditions: ethanol-exposed pup cerebellar tissue vs control
# Description: Total RNA was isolated from brain tissue using TRIzol reagent (Invitrogen, Carlsbad, Calif.) according to the manufacturer's protocol. RNA concentrations and purity were determined from the absorbances measured at 260 nm and 280 nm. RNA (2 μg) was reverse transcribed using the AMV First Strand cDNA synthesis kit (Roche Diagnostics Corporation, Indianapolis, Ind.) and random oligodeoxynucleotide primers. Real time quantitative RT-PCR was used to measure mRNA levels of insulin, IGF-I, and IGF-II growth factors, their corresponding receptors, neuronal (Hu), astrocytic (glial fibrillary acidic protein; GFAP), oligodendroglial (myelin-associated glycoprotein-1; MAG-1), microglial (AIF1), and endothelial (endothelin-1; ET-1) cell genes, acetyl cholinesterase (AChE), and choline acetyltransferase (ChAT). Ribosomal 18S RNA levels measured in parallel reactions were used to calculate relative abundance of the mRNA transcripts (Myers et al., Trends Biochem. Sci. 19:289 (1994); Baltensperger et al., Science 260:1950 (1993)). PCR amplifications were performed in 25 μl reactions containing cDNA generated from 2.5 ng of original RNA template, 300 nM each of gene specific forward and reverse primer (Table 1), and 12.5 μl of 2× QuantiTect SYBR Green PCR Mix (Qiagen Inc, Valencia, Calif.). […]
# cerebellar cortex = conditions: rat, in vivo
# Source text: (§3) Male (˜200 g) Long Evans rats (Charles River Laboratories, Cambridge, Mass.) were fed isocaloric liquid diets (BioServ, Frenchtown, N.J.) in which ethanol comprised 0% or 37% of the caloric content (9.25% v/v) for 6 weeks (Yeon et al., Hepatology 38:703 (2003)). A chow fed control group was also studied. Rats were monitored daily to ensure equivalent food consumption and maintenance of body weight. Upon sacrifice, the brains were harvested and either immersion fixed in Histochoice fixative (Amresco Corp., Solon, Ohio) for paraffin embedding, or sliced fresh to micro-dissect temporal cortex, hypothalamus, and cerebellum. The fresh tissue blocks were snap frozen in a dry ice-methanol bath and stored at −80° C. for mRNA and protein studies.
# (§4) Fixed brains were sectioned in the coronal plane along standardized landmarks and embedded in paraffin. Paraffin-embedded sections (8 μm thick) were stained with hematoxylin and eosin, or immunostained with monoclonal antibodies to 8-hydroxy-deoxyguanosine (8-OHdG) (Oxis Research) or 4-hydroxynonenol (HNE) (Chemicon International, Temecula, Calif.) to detect DNA damage and lipid peroxidation, respectively. Prior to immunostaining, deparaffinized, re-hydrated sections were treated with 0.1 mg/ml saponin in phosphate buffered saline (10 mM sodium phosphate, 0.9% NaCl, pH 7.4; PBS) for 20 minutes at room temperature, followed by 3% hydrogen peroxide in methanol for 10 minutes to quench endogenous peroxidase activity, and then 30 minutes in SuperBlock-TBS (Pierce Chemical Co., Rockford, Ill.) at room temperature to block non-specific binding sites. The sections were incubated overnight at 4° C. with 0.5-1 μg/ml of primary antibody. Immunoreactivity was detected with biotinylated secondary antibody, avidin biotin horseradish peroxidase complex (ABC) reagents, and diaminobenzidine as the chromogen (Vector Laboratories, Burlingame, Calif.) (Lam et al. J. Biol. Chem. 269:20648 (1994)). The tissue sections were counterstained with hematoxylin and examined by light microscopy.
# [4] = test system: lipid peroxidation and DNA damage in brain; conditions: rat, in vivo
# Source text: as §3, §4
# AChE mRNA = conditions: chronic ethanol feeding; temporal lobe, hypothalamus, cerebellum
# Source text: as §3
# (§5) Total RNA was isolated from brain tissue using TRIzol reagent (Invitrogen, Carlsbad, Calif.) according to the manufacturer's protocol. RNA concentrations and purity were determined from the absorbances measured at 260 nm and 280 nm. […] Real time quantitative RT-PCR was used to measure mRNA levels of insulin, IGF-I, and IGF-II growth factors, their corresponding receptors, neuronal (Hu), astrocytic (glial fibrillary acidic protein; GFAP), oligodendroglial (myelin-associated glycoprotein-1; MAG-1), microglial (AIF1), and endothelial (endothelin-1; ET-1) cell genes, acetyl cholinesterase (AChE), and choline acetyltransferase (ChAT). […]
# ChAT mRNA = conditions: chronic ethanol feeding; hypothalamus and cerebellum
# Source text: as §3, §5
# insulin receptors = conditions: pup cerebellar membrane extracts, chronic gestational ethanol exposure relative to control; not dose-dependent
# Description: (§6) Fresh frozen tissue (˜100 mg) was homogenized in 5 volumes of NP-40 lysis buffer (50 mM Tris-HCl, pH 7.5, 1% NP-40, 150 mM NaCl, 1 mM EDTA, 2 mM EGTA) containing protease inhibitors (1 mM PMSF, 0.1 mM TPCK, 1 μg/ml aprotinin, 1 μg/ml pepstatin A, 0.5 μg/ml leupeptin, 1 mM NaF, 1 mM Na4P2O7). Protein concentrations were determined using the bicinchoninic acid (BCA) assay (Pierce, Rockford, Ill.). Exploratory studies determined the amounts of protein and concentrations of radiolabeled ligand required to achieve 20% specific binding. Insulin receptor binding assays were performed using 100 μg protein. IGF-I binding assays required 25 μg protein per sample, and IGF-II receptor binding assays were optimized using 10 μg protein. […]
# (§7) All reactions were performed in 1.5 ml Eppendorff tubes, and the incubations were performed at 4° C. for 16 hours with gentle platform agitation. […] The samples were counted for 1 minute in an LKB CompuGamma CS Gamma counter. Specific binding was calculated by subtracting fmol of non-specific binding, i.e., amount bound in the presence of cold ligand, from the total fmol bound (absence of unlabeled competitive ligand). The results were analyzed and plotted using the GraphPad Prism 4 software (GraphPad Software, Inc., San Diego, Calif.).
# IGF-I receptors = conditions: pup cerebellar membrane extracts, chronic gestational ethanol exposure relative to control; not dose-dependent
# Description: as §6, §7
smiles,measurement,setting,value
CCO [ethanol],IGF-I receptor tyrosine kinase activity,[1],significantly reduced
same,insulin receptor tyrosine kinase activity,[2],significantly reduced
same,cerebellar ATP content,cerebellar ATP content,dose-dependent progressive reductions
same,ChAT mRNA expression,[3],significant reductions
same,structural abnormalities in the cerebellar cortex,cerebellar cortex,loss of Purkinje cells and reduced densities of cells within the internal granule layer
same,8-OHdG immunoreactivity (DNA damage),[4],only detected in scattered cells
same,HNE immunoreactivity (lipid peroxidation),[4],conspicuously increased cellular labeling
same,expression of AChE,AChE mRNA,did not significantly alter
same,ChAT mRNA expression,ChAT mRNA,significantly reduced
same,impairment of insulin receptor binding,insulin receptors,~80%
same,impairment of IGF-I receptor binding,IGF-I receptors,~80%
